In ChEMBL document CHEMBL5291721, “A preclinical secondary pharmacology resource illuminates target-adverse drug reaction associations of marketed drugs” (Nat Commun, 2023):

Columns and labels:
[1] = target: T1, 5-hydroxytryptamine receptor 2C (Homo sapiens, UniProt P28335)
T1 sequence (P28335 whole entry): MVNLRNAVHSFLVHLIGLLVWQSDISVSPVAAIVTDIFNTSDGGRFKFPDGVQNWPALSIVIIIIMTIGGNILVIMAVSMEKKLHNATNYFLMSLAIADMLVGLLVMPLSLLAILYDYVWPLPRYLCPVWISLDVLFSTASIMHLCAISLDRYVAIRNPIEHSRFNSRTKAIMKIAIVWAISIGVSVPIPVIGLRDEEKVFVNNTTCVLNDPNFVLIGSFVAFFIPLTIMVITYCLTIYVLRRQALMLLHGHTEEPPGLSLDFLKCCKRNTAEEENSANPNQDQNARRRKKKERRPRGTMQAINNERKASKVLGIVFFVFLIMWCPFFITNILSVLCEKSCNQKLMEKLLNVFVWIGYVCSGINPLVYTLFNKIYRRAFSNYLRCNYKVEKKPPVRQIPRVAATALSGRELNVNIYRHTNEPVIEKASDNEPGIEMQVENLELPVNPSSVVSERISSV

[2] = target: Growth hormone secretagogue receptor type 1 (Homo sapiens, UniProt Q92847)
[3] = target: Sodium-dependent dopamine transporter (Homo sapiens, UniProt Q01959)
Cannabinoid receptor 1 = Cannabinoid receptor 1 (Homo sapiens, UniProt P21554)
[4] = target: T2, Prostaglandin G/H synthase 1 (Rattus norvegicus, UniProt Q63921); type: functional
T2 sequence (Q63921 whole entry): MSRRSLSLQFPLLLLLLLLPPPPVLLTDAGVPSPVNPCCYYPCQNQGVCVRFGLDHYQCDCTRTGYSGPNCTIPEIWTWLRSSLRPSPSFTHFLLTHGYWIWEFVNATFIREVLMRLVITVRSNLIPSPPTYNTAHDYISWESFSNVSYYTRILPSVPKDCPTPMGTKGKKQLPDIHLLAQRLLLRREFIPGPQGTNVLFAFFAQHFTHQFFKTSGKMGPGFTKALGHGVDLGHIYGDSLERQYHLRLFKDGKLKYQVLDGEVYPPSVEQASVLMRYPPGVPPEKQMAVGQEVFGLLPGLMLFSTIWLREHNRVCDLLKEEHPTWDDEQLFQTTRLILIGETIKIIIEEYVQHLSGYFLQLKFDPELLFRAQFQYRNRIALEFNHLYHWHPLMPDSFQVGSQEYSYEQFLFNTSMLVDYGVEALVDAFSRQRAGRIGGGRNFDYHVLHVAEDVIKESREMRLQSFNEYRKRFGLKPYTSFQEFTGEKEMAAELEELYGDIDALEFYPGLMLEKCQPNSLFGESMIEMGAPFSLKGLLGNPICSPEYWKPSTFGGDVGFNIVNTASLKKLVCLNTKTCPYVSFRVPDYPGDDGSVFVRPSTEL

Melanocortin receptor 3 = Melanocortin receptor 3 (Homo sapiens, UniProt P41968)
[5] = target: Neuronal acetylcholine receptor subunit alpha-4 (Homo sapiens, UniProt P43681)
Melanocortin receptor 4 = Melanocortin receptor 4 (Homo sapiens, UniProt P32245)
[6] = target: Gamma-aminobutyric acid receptor subunit alpha-1 (Rattus norvegicus, UniProt P62813)
[7] = target: T3, Alpha-2A adrenergic receptor (Homo sapiens, UniProt P08913); type: functional, cell-based
T3 sequence (P08913 whole entry): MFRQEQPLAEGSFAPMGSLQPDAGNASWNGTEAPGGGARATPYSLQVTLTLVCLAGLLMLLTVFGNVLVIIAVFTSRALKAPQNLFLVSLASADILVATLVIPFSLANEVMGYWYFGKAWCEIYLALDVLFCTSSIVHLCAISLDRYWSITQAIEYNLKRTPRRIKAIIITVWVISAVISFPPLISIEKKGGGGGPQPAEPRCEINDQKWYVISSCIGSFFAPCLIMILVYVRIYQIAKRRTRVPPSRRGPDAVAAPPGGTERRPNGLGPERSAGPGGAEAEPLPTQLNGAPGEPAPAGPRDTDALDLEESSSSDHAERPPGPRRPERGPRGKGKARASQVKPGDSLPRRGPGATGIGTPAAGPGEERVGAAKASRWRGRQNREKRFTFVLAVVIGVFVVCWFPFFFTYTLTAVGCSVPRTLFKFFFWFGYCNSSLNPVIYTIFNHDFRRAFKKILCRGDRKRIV

[8] = target: Beta-1 adrenergic receptor (Homo sapiens, UniProt P08588); type: functional
D(3) dopamine receptor = D(3) dopamine receptor (Homo sapiens, UniProt P35462)
[9] = target: Vascular endothelial growth factor receptor 2 (Homo sapiens, UniProt P35968); type: functional
Estrogen receptor = target: T4, Estrogen receptor (Homo sapiens, UniProt P03372)
T4 sequence (P03372 whole entry): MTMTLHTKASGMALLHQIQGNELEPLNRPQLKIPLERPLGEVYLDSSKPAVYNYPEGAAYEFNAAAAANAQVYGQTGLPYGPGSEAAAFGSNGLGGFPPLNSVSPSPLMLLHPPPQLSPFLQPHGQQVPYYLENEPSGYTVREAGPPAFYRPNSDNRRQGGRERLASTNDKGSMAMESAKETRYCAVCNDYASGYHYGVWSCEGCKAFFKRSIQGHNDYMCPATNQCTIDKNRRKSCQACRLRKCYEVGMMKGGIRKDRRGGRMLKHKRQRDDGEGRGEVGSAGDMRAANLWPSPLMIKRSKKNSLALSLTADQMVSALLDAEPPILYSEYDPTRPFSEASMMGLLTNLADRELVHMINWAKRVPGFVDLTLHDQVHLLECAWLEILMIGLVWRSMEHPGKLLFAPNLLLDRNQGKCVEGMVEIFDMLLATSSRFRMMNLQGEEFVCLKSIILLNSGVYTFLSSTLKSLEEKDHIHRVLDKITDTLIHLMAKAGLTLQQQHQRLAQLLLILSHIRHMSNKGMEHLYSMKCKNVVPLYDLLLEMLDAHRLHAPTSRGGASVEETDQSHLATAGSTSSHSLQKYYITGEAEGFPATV
Further: assay procedure not described here.

Sequence of Beta-1 adrenergic receptor (P08588 whole entry): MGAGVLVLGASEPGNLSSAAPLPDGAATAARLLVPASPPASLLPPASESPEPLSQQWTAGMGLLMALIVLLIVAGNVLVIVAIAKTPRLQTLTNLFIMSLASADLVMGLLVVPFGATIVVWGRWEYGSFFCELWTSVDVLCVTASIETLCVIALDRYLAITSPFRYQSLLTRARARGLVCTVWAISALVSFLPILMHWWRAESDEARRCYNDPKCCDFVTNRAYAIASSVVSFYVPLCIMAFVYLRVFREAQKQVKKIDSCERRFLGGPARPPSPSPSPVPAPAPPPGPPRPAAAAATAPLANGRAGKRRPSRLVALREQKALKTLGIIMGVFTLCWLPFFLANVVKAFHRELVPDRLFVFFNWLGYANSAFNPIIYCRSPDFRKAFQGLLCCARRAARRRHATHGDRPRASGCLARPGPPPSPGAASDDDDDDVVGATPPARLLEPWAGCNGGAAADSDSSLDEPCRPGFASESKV
Sequence of Neuronal acetylcholine receptor subunit alpha-4 (P43681 whole entry): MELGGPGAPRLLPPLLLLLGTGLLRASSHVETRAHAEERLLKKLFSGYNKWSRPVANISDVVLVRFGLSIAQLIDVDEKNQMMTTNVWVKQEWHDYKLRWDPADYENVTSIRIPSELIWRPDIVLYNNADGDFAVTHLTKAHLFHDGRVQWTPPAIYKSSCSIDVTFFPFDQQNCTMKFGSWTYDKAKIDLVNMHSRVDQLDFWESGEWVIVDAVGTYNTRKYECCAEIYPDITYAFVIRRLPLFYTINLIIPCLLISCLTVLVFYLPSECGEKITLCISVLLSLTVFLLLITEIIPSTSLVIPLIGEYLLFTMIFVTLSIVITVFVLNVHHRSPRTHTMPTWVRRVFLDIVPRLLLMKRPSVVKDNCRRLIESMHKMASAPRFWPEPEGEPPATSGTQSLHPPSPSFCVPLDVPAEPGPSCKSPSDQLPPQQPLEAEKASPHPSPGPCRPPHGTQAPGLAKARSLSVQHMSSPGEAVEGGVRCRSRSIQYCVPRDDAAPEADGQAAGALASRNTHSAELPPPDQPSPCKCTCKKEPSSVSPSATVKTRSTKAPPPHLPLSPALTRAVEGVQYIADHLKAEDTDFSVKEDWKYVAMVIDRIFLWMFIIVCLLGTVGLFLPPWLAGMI
Sequence of Vascular endothelial growth factor receptor 2 (P35968 whole entry): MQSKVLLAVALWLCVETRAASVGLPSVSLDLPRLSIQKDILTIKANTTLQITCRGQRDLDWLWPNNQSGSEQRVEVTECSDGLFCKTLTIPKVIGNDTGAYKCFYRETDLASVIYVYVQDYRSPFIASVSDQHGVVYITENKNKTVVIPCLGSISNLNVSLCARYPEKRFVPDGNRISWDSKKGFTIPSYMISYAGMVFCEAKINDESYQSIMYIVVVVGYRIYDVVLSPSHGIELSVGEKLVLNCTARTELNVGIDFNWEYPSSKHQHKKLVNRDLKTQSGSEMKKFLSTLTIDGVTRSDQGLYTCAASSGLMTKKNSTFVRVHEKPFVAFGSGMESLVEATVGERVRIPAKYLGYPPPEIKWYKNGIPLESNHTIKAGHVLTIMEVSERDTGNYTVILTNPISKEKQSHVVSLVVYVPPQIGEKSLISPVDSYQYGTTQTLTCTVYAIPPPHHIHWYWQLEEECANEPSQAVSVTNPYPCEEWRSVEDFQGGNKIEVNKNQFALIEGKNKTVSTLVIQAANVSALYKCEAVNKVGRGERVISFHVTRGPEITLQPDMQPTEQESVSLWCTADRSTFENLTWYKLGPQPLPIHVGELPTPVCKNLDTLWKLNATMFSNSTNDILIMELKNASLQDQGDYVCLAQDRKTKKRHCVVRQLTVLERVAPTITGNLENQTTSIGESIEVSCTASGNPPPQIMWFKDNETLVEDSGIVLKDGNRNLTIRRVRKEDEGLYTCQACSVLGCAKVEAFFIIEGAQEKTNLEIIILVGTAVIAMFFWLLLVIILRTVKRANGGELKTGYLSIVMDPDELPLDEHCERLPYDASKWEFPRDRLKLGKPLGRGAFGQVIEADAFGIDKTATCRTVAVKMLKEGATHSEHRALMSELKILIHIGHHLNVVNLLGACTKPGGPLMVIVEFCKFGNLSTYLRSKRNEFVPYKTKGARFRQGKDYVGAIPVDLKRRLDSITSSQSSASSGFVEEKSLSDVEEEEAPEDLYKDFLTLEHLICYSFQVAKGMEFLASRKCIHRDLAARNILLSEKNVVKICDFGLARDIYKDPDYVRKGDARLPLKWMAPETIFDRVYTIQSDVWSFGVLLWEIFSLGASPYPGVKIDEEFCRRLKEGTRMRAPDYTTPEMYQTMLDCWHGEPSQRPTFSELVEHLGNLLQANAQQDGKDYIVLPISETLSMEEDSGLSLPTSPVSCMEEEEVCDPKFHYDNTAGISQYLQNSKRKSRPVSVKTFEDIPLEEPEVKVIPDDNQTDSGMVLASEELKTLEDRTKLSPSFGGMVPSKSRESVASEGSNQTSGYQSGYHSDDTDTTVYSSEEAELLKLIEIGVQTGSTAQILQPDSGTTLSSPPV
Sequence of Melanocortin receptor 3 (P41968 whole entry): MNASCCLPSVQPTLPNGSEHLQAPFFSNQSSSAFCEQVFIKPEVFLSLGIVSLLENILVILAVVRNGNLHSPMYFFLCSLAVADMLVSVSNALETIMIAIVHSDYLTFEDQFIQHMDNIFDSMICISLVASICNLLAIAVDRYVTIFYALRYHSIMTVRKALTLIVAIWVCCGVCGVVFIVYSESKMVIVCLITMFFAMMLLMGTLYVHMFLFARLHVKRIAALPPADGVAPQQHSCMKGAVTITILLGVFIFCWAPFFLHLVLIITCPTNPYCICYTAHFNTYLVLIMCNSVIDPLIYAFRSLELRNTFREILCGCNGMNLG
Sequence of Cannabinoid receptor 1 (P21554 whole entry): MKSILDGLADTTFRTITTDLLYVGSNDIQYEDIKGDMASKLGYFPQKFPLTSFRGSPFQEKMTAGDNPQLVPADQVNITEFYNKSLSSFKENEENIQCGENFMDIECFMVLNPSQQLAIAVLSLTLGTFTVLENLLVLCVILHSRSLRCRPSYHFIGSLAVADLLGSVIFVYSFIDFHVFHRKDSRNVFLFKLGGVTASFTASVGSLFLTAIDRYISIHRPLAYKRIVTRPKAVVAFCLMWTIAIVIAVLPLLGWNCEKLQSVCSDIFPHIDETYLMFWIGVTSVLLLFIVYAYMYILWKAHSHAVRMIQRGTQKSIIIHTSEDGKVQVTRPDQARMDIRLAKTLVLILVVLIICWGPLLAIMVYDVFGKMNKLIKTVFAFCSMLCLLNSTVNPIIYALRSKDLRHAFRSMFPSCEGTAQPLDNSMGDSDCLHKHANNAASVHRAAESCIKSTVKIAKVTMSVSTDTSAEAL
Sequence of Growth hormone secretagogue receptor type 1 (Q92847 whole entry): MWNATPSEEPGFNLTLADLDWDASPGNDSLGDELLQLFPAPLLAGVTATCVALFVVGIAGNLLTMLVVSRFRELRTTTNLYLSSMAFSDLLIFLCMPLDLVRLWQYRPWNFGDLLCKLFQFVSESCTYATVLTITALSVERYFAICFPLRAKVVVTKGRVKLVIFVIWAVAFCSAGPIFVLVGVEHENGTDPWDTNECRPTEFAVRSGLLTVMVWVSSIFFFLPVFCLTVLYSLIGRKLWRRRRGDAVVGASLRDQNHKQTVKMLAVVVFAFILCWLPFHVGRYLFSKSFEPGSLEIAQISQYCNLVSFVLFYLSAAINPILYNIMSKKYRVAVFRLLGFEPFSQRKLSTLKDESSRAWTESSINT
Sequence of D(3) dopamine receptor (P35462 whole entry): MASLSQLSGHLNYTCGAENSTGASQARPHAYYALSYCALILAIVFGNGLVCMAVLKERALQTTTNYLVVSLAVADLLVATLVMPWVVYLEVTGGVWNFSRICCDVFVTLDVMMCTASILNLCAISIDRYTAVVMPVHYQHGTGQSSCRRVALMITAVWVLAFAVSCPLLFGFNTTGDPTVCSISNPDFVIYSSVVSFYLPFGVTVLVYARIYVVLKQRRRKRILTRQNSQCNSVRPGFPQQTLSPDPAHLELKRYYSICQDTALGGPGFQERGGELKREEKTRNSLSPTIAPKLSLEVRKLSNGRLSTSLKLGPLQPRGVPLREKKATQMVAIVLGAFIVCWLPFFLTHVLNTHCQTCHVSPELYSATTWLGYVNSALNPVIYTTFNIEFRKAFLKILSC
Sequence of Melanocortin receptor 4 (P32245 whole entry): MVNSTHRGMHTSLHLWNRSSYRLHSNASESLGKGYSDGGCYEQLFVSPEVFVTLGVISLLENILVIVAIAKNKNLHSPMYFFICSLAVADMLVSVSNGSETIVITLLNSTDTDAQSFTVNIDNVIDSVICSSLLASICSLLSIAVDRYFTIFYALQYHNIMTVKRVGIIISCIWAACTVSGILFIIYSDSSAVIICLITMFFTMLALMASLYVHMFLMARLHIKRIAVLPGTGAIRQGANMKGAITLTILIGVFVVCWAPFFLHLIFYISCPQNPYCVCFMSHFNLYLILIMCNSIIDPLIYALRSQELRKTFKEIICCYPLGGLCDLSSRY
Sequence of Sodium-dependent dopamine transporter (Q01959 whole entry): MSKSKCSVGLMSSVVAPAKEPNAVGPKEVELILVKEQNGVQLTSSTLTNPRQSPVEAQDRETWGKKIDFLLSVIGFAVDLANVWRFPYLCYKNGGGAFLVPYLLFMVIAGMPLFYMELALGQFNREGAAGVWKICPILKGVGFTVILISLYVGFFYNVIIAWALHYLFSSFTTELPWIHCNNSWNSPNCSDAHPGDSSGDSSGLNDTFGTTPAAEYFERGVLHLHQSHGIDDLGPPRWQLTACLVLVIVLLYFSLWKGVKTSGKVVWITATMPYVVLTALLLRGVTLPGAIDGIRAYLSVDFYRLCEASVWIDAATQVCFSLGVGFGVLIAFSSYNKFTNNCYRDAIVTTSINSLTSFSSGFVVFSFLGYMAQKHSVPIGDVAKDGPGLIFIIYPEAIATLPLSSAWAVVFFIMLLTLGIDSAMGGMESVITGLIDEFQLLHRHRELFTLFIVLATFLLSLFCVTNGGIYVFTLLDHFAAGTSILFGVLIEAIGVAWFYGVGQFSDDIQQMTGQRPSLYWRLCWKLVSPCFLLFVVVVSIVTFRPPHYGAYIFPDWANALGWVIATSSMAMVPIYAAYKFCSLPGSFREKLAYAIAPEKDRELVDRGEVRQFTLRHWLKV

C[N+]1(C)CCC(=C(c2ccccc2)c2ccccc2)CC1
AC50 [1]: > 30 µM
AC50 [2]: > 30 µM
AC50 [3]: > 10 µM
AC50 (Cannabinoid receptor 1): > 10 µM
AC50 [4]: > 10 µM
AC50 (Melanocortin receptor 3): > 30 µM
AC50 [5]: 16.2 µM
AC50 (Melanocortin receptor 4): > 30 µM
AC50 [6]: > 10 µM
AC50 [7]: > 10 µM
AC50 [8]: > 10 µM

Cc1cc2c(cc1S(N)(=O)=O)S(=O)(=O)CCC2
AC50 (D(3) dopamine receptor): > 30 µM
AC50 [9]: > 30 µM

C[C@H](N[C@@H](CCc1ccccc1)C(=O)O)C(=O)N1Cc2ccccc2C[C@H]1C(=O)O
AC50 (D(3) dopamine receptor): > 30 µM
AC50 [9]: > 30 µM

Cc1ccccc1-n1c(CF)nc2ccc(N)cc2c1=O [AFLOQUALONE]
AC50 [1]: > 30 µM
AC50 [2]: > 30 µM
AC50 [3]: > 30 µM
AC50 (Cannabinoid receptor 1): > 10 µM
AC50 [4]: 27.9 µM
AC50 (Melanocortin receptor 3): > 30 µM
AC50 [5]: > 30 µM
AC50 (Melanocortin receptor 4): > 30 µM
AC50 [6]: > 10 µM
AC50 [7]: > 10 µM
AC50 [8]: > 30 µM

CC1(C)S[C@@H]2[C@H](/N=C/N3CCCCCC3)C(=O)N2[C@H]1C(=O)O [AMDINOCILLIN]
AC50 (D(3) dopamine receptor): > 30 µM
AC50 [9]: > 30 µM

CC(=O)[C@]1(N)Cc2c(O)c3c(c(O)c2[C@@H](O[C@H]2C[C@H](O)[C@H](O)CO2)C1)C(=O)c1ccccc1C3=O [AMRUBICIN]
AC50 (D(3) dopamine receptor): > 30 µM
AC50 [9]: > 30 µM

NC(=O)[C@@H]1CC[C@@H]2CN1C(=O)N2OS(=O)(=O)O [AVIBACTAM]
AC50 (D(3) dopamine receptor): > 30 µM
AC50 [9]: > 30 µM

CC(=O)OC[C@H]1O[C@@H](n2ncc(=O)[nH]c2=O)[C@H](OC(C)=O)[C@@H]1OC(C)=O [AZARIBINE]
AC50 (D(3) dopamine receptor): > 30 µM
AC50 [9]: > 30 µM

CC(C)(C)NC(=O)N[C@H](C(=O)N1C[C@H]2[C@@H]([C@H]1C(=O)NC(CC1CCC1)C(=O)C(N)=O)C2(C)C)C(C)(C)C (some centres undefined) [BOCEPREVIR]
AC50 (D(3) dopamine receptor): > 30 µM
AC50 [9]: > 30 µM

C=C1CC[C@H](O)C/C1=C/C=C1\CCC[C@]2(C)[C@@H]([C@H](C)CCCC(C)C)CC[C@@H]12 [CHOLECALCIFEROL]
AC50 (D(3) dopamine receptor): 15.6 µM
AC50 [9]: > 30 µM

Cc1ncc2c(c1O)COC2c1ccc(Cl)cc1 (centres undefined) [CICLETANINE]
AC50 (D(3) dopamine receptor): > 30 µM
AC50 [9]: > 30 µM

N#Cc1ccc(Oc2ccc3c(c2)COB3O)cc1 [CRISABOROLE]
AC50 (D(3) dopamine receptor): > 30 µM
AC50 [9]: > 30 µM

CN[C@]1(c2ccccc2Cl)CCCCC1=O [ESKETAMINE]
AC50 [1]: > 30 µM
AC50 [2]: > 30 µM
AC50 [3]: > 30 µM
AC50 (Cannabinoid receptor 1): > 30 µM
AC50 [4]: > 30 µM
AC50 (Melanocortin receptor 3): > 30 µM
AC50 (Estrogen receptor): > 30 µM
AC50 [5]: > 30 µM
AC50 [6]: > 30 µM
AC50 [7]: > 30 µM
AC50 [8]: > 30 µM

CC(=O)O[C@H]1Cc2ccccc2N(C(N)=O)c2ccccc21 [ESLICARBAZEPINE ACETATE]
AC50 (D(3) dopamine receptor): > 30 µM
AC50 [9]: > 30 µM

CC(O)(P(=O)(O)O)P(=O)(O)O [ETIDRONIC ACID]
AC50 (D(3) dopamine receptor): > 30 µM
AC50 [9]: > 30 µM

Cc1ccc(S(=O)(=O)NC(=O)NC2CCCCC2)cc1 [GLYCYCLAMIDE]
AC50 (D(3) dopamine receptor): > 30 µM
AC50 [9]: > 30 µM

CN1CCCN(C(c2ccccc2)c2ccc(Cl)cc2)CC1 (centres undefined) [HOMOCHLORCYCLIZINE]
AC50 (D(3) dopamine receptor): 0.0721 µM
AC50 [9]: > 30 µM

CC(=O)OCC(=O)[C@@]1(O)CC[C@H]2[C@@H]3CCC4=CC(=O)CC[C@]4(C)[C@H]3[C@@H](O)C[C@@]21C [HYDROCORTISONE ACETATE]
AC50 [9]: > 30 µM

CN(C)CCCN1c2ccccc2CCc2ccccc21 [IMIPRAMINE]
AC50 [1]: 0.13 µM
AC50 [2]: > 30 µM
AC50 (Cannabinoid receptor 1): 0.174 µM
AC50 [4]: > 30 µM
AC50 (Melanocortin receptor 3): 18.8 µM
AC50 (Melanocortin receptor 4): 21.4 µM
AC50 [6]: > 10 µM
AC50 [7]: > 10 µM
AC50 [8]: > 10 µM

CC(COc1ccccc1)NC(C)C(O)c1ccc(O)cc1 (centres undefined) [ISOXSUPRINE]
AC50 (D(3) dopamine receptor): 0.037 µM
AC50 [9]: > 30 µM

Cc1oc(=O)oc1COC(=O)[C@@H]1N2C(=O)[C@@H](NC(=O)[C@H](N)c3ccccc3)[C@H]2SC1(C)C [LENAMPICILLIN]
AC50 (D(3) dopamine receptor): > 30 µM
AC50 [9]: > 30 µM

COc1ccc(OC)c(C(O)C(C)N)c1 (centres undefined) [METHOXAMINE]
AC50 (D(3) dopamine receptor): > 30 µM
AC50 [9]: > 30 µM

CC1(CCN2CCCCC2)C(=O)CCc2ccccc21 (centres undefined) [NEPINALONE]
AC50 (D(3) dopamine receptor): > 30 µM
AC50 [9]: > 30 µM

COc1cccc(C(=O)CCN[C@@H](C)[C@H](O)c2ccccc2)c1 [OXYFEDRINE]
AC50 (D(3) dopamine receptor): 0.382 µM
AC50 [9]: > 30 µM

CC[N+](C)(CC)CCOC(=O)C(O)(c1ccccc1)C1CCCCC1 (centres undefined) [OXYPHENONIUM]
AC50 (D(3) dopamine receptor): > 30 µM
AC50 [9]: > 30 µM

C[C@@H]1C[C@H]2[C@@H]3C[C@H](F)C4=CC(=O)C=C[C@]4(C)[C@H]3[C@@H](O)C[C@]2(C)[C@@]1(O)C(=O)CO [PARAMETHASONE]
AC50 (D(3) dopamine receptor): > 30 µM
AC50 [9]: > 30 µM

CCC[C@H](N[C@@H](C)C(=O)N1[C@H](C(=O)O)C[C@@H]2CCCC[C@@H]21)C(=O)OCC [PERINDOPRIL]
AC50 (D(3) dopamine receptor): > 30 µM
AC50 [9]: > 30 µM

NNCCc1ccccc1 [PHENELZINE]
AC50 (D(3) dopamine receptor): > 30 µM
AC50 [9]: > 30 µM

N[C@@H](Cc1ccccc1)C(=O)O [PHENYLALANINE]
AC50 (D(3) dopamine receptor): > 30 µM
AC50 [9]: > 30 µM

CCCn1cnc2c1c(=O)n(CCCCC(C)=O)c(=O)n2C [PROPENTOFYLLINE]
AC50 (D(3) dopamine receptor): > 30 µM
AC50 [9]: > 30 µM

CN[C@@H](C)[C@@H](O)c1ccccc1 [PSEUDOEPHEDRINE]
AC50 [1]: > 30 µM
AC50 [2]: > 30 µM
AC50 [3]: > 10 µM
AC50 [4]: > 30 µM
AC50 (Melanocortin receptor 3): > 30 µM
AC50 (Estrogen receptor): > 30 µM
AC50 [5]: > 10 µM
AC50 (Melanocortin receptor 4): > 30 µM
AC50 [6]: > 10 µM
AC50 [7]: > 10 µM
AC50 [8]: > 10 µM

Clc1ccc(C(Cn2ccnc2)OCc2csc3c(Cl)cccc23)c(Cl)c1 (centres undefined) [SERTACONAZOLE]
AC50 (D(3) dopamine receptor): 1.78 µM
AC50 [9]: > 30 µM

CC(OCCN1CCCCCC1)(c1ccccc1)c1ccc(Cl)cc1 (centres undefined) [SETASTINE]
AC50 (D(3) dopamine receptor): 0.432 µM
AC50 [9]: > 30 µM

CCCSc1nc(N[C@@H]2C[C@H]2c2ccc(F)c(F)c2)c2nnn([C@@H]3C[C@H](OCCO)[C@@H](O)[C@H]3O)c2n1 [TICAGRELOR]
AC50 (D(3) dopamine receptor): 20.5 µM
AC50 [9]: > 30 µM

c1ccc2c(SC3=NCCN3)c[nH]c2c1 [TINAZOLINE]
AC50 (D(3) dopamine receptor): > 30 µM
AC50 [9]: > 30 µM

Cc1ccc(C(=O)C(C)CN2CCCCC2)cc1 (centres undefined) [TOLPERISONE]
AC50 (D(3) dopamine receptor): 2.52 µM
AC50 [9]: > 30 µM
